The values below come from ChEMBL document CHEMBL4507257, “Data for DCP probe ABT-100” (2021).

One assay deals with Aurora kinase B (Homo sapiens, UniProt Q96GD4). In words: Inhibition of AURKB at compound concentration of 10.0 uM using the ScanMax (DiscoverX).
The target in assay [1] is Calcium/calmodulin-dependent protein kinase type 1B (Homo sapiens, UniProt Q6P2M8). The assay is described as follows: Inhibition of PNCK at compound concentration of 10.0 uM using the ScanMax (DiscoverX).
In assay [2] the target is Adenosine receptor A3 (Homo sapiens) (UniProt P0DMS8). In words: A3 (h) Ligand binding assay. The settings on record: Compound concentration 10.0 uM.
The target in assay [3] is Sodium-dependent noradrenaline transporter (Homo sapiens) (UniProt P23975). In words: NE uptake (h) Ligand binding assay.
Assay [4] deals with Type-1 angiotensin II receptor (Homo sapiens) (UniProt P30556). In words: AT1 (h) Ligand binding assay. To be noted: Compound concentration 10.0 uM.
In assay [5] the target is Type-2 angiotensin II receptor (Homo sapiens) (UniProt P50052). The assay is described as follows: AT2 (h) Ligand binding assay. The settings on record: Compound concentration 10.0 uM.
Assay [6] concerns the target Translocator protein (Rattus norvegicus) (UniProt P16257). In words: BZD (peripheral) Ligand binding assay. To be noted: Compound concentration 10.0 uM.
Assay [7] deals with Gastrin/cholecystokinin type B receptor (Homo sapiens) (UniProt P32239). In words: CCKB (h) Ligand binding assay. The settings on record: Compound concentration 10.0 uM.
In assay [8] the target is D(1A) dopamine receptor (Homo sapiens) (UniProt P21728). The assay is described as follows: D1 (h) Ligand binding assay. The settings on record: Compound concentration 10.0 uM.
The target in assay [9] is T1, D(4) dopamine receptor (Homo sapiens) (UniProt P21917).
T1 sequence (whole entry): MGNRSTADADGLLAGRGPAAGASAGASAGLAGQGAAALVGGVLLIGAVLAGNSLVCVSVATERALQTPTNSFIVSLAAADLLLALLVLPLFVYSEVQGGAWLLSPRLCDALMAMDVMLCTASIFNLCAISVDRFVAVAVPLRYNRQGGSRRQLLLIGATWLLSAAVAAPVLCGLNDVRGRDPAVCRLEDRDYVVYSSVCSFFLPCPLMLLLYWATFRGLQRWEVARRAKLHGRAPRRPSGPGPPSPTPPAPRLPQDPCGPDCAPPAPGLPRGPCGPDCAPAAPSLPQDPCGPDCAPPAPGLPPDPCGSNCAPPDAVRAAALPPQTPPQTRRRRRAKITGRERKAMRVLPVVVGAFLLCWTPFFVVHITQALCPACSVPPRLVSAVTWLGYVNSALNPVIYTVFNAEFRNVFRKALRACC
The assay is described as follows: D4.4 (h) Ligand binding assay. The settings on record: Compound concentration 10.0 uM.

In assay [10] the target is C-X-C chemokine receptor type 1 (Homo sapiens) (UniProt P25024). In words: IL-8A (h) (CXCR1) Ligand binding assay. To be noted: Compound concentration 10.0 uM.
Assay [11] has as its target Substance-K receptor (Homo sapiens) (UniProt P21452). The assay is described as follows: NK2 (h) Ligand binding assay.
In assay [12] the target is Neuropeptide Y receptor type 2 (Homo sapiens) (UniProt P49146). The assay is described as follows: Y2 (h) Ligand binding assay. The settings on record: Compound concentration 10.0 uM.
In assay [13] the target is Delta-type opioid receptor (Homo sapiens) (UniProt P41143). The assay is described as follows: Delta (h) Ligand binding assay. To be noted: Compound concentration 10.0 uM.
The target in assay [14] is Thromboxane A2 receptor (Homo sapiens) (UniProt P21731). The assay is described as follows: TXA2/PGH2 (h) Ligand binding assay. To be noted: Compound concentration 10.0 uM.
In assay [15] the target is P2Y receptor (Homo sapiens) (UniProt Q9H244+P51582+P47900+P41231+Q15391+Q15077+Q96G91+Q9BPV8). The assay is described as follows: P2Y Ligand binding assay. The class given is protein assay. The settings on record: Compound concentration 10.0 uM.
The target of assay [16] is 5-hydroxytryptamine receptor 2A (Homo sapiens) (UniProt P28223). The assay is described as follows: 5-HT2A (h) Ligand binding assay. To be noted: Compound concentration 10.0 uM.
For assay [17], the target named is T2, 5-hydroxytryptamine receptor 2C (Homo sapiens) (UniProt P28335).
T2 sequence (whole entry): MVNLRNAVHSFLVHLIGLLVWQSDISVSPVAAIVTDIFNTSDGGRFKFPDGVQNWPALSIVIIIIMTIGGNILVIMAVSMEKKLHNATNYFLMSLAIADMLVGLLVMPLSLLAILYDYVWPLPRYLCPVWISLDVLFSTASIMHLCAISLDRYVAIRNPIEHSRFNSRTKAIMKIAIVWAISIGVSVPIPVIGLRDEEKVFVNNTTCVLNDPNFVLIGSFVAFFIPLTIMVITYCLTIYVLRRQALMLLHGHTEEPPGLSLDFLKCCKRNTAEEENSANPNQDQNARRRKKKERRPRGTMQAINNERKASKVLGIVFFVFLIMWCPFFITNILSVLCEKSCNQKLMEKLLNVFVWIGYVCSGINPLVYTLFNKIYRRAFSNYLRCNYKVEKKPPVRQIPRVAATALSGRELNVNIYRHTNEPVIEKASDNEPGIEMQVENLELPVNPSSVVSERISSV
The assay is described as follows: 5-HT2C (h) Ligand binding assay. To be noted: Compound concentration 10.0 uM.

Assay [18] deals with 5-hydroxytryptamine receptor 5A (Homo sapiens) (UniProt P47898). The assay is described as follows: 5-HT5A (h) Ligand binding assay. The settings on record: Compound concentration 10.0 uM.
In assay [19] the target is Sigma receptor (Homo sapiens) (UniProt Q99720+Q5BJF2). The assay is described as follows: Sigma (non selective) Ligand binding assay. It counts as protein assay.
In assay [20] the target is Calcium/calmodulin-dependent protein kinase type II subunit gamma (Homo sapiens) (UniProt Q13555). The settings on record: Compound concentration 1000.0 nM.
The target of assay [21] is Peripheral plasma membrane protein CASK (Homo sapiens) (UniProt O14936). The settings on record: Compound concentration 1000.0 nM.
Assay [22] has as its target Tyrosine-protein kinase Fyn (Homo sapiens) (UniProt P06241). The settings on record: Compound concentration 1000.0 nM.
Assay [23] concerns the target Mitogen-activated protein kinase kinase kinase 3 (Homo sapiens) (UniProt Q99759). The settings on record: Compound concentration 1000.0 nM.
Assay [24] has as its target Dual specificity mitogen-activated protein kinase kinase 3 (Homo sapiens) (UniProt P46734). To be noted: Compound concentration 1000.0 nM.
Assay [25] has as its target Myosin light chain kinase family member 4 (Homo sapiens) (UniProt Q86YV6). To be noted: Compound concentration 1000.0 nM.
In assay [26] the target is cAMP-dependent protein kinase catalytic subunit beta (Homo sapiens) (UniProt P22694). To be noted: Compound concentration 1000.0 nM.
Assay [27] has as its target Protein kinase C epsilon type (Homo sapiens) (UniProt Q02156). The settings on record: Compound concentration 1000.0 nM.
For assay [28], the target named is Ribosomal protein S6 kinase alpha-1 (Homo sapiens) (UniProt Q15418). The settings on record: Compound concentration 1000.0 nM.
Assay [29] concerns the target Wee1-like protein kinase (Homo sapiens) (UniProt P30291). The settings on record: Compound concentration 1000.0 nM.
The target of assay [30] is 5-hydroxytryptamine receptor 1B (Homo sapiens) (UniProt P28222). The settings on record: Compound concentration 10.0 uM.
Assay [31] concerns the target Atrial natriuretic peptide receptor 1 (Homo sapiens) (UniProt P16066). The assay is described as follows: ANP Ligand binding assay. To be noted: Compound concentration 10.0 uM.
In assay [32] the target is Melatonin receptor type 1A (Homo sapiens) (UniProt P48039). In words: ML1 Ligand binding assay. The settings on record: Compound concentration 10.0 uM.
Assay [33] has as its target Sigma non-opioid intracellular receptor 1 (Homo sapiens, UniProt Q99720). In words: GPCRScan assay: inhibition of Sigma 1. Further details: radioligand conc. used [nm] 4.0 – 5.0, parental cells HEKT.

Sodium-dependent noradrenaline transporter (Homo sapiens), sequence (P23975 whole entry): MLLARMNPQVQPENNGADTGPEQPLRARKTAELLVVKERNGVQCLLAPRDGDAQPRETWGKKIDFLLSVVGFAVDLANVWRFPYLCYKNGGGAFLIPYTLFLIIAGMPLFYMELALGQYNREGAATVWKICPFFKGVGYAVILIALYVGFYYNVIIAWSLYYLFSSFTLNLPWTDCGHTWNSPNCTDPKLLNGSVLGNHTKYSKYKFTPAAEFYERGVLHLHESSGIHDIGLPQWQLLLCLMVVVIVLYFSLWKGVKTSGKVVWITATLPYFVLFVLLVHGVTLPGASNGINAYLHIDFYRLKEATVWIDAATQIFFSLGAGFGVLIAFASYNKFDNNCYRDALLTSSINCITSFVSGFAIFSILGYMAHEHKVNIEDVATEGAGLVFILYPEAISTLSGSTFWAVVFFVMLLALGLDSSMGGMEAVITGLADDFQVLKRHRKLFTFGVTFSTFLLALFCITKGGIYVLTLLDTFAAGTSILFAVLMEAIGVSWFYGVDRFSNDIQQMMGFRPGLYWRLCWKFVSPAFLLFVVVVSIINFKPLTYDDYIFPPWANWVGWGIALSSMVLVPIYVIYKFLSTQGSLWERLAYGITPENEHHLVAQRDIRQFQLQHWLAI
Substance-K receptor (Homo sapiens), sequence (P21452 whole entry): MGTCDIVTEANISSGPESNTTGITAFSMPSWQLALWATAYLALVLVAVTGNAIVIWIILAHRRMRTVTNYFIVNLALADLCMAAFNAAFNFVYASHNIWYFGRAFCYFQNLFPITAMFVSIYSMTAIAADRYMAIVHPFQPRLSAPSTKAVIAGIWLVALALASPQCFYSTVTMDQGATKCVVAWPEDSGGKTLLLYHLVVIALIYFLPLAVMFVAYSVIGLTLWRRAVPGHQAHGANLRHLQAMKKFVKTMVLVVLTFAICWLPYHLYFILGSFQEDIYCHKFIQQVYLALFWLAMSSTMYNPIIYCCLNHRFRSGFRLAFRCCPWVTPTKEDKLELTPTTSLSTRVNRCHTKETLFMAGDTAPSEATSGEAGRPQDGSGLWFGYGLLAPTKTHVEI
Tyrosine-protein kinase Fyn (Homo sapiens), sequence (P06241 2-537 limits assumed): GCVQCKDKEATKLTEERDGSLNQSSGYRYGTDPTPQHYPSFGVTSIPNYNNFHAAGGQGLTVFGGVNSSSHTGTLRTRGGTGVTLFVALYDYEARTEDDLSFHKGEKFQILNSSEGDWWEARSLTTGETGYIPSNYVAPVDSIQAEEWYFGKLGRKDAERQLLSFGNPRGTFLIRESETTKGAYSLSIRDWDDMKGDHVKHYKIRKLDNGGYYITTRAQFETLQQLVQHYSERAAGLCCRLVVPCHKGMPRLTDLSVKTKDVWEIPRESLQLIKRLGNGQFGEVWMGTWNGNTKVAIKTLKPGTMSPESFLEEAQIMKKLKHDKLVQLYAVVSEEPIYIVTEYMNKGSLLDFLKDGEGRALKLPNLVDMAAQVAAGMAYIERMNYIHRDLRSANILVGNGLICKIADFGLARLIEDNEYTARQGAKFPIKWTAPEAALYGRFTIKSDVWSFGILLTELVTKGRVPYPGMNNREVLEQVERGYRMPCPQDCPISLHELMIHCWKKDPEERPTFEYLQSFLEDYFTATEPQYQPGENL
5-hydroxytryptamine receptor 1B (Homo sapiens), sequence (P28222 whole entry): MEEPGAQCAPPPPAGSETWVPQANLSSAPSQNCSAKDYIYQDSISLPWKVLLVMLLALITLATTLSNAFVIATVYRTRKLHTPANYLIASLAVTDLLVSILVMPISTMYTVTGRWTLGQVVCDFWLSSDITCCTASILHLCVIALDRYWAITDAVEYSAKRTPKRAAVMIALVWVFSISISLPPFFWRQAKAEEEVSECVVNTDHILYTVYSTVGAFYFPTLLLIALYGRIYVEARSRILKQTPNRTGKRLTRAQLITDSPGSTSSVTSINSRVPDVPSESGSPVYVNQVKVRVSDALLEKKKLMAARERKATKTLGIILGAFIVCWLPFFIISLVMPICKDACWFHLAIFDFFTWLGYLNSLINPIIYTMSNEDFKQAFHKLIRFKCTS
Dual specificity mitogen-activated protein kinase kinase 3 (Homo sapiens), sequence (P46734 whole entry): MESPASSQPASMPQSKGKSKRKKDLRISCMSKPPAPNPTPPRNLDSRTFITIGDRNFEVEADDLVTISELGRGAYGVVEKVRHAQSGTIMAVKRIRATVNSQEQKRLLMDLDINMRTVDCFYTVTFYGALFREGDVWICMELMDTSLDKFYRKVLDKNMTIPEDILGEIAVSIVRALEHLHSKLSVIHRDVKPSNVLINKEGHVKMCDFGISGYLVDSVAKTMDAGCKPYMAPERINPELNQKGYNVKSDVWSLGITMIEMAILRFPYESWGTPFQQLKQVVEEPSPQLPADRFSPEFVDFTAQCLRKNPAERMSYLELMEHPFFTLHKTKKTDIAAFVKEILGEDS
Myosin light chain kinase family member 4 (Homo sapiens), sequence (Q86YV6 whole entry): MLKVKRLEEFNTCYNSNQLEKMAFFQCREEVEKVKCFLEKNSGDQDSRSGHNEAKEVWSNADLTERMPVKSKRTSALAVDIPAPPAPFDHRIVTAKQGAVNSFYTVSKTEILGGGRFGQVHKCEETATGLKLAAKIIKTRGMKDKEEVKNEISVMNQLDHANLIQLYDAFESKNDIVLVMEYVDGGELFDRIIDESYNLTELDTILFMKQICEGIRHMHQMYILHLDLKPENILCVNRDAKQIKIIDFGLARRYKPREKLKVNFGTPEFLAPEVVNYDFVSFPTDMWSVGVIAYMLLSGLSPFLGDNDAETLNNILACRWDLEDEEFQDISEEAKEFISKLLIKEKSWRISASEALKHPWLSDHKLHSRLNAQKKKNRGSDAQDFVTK
Calcium/calmodulin-dependent protein kinase type II subunit gamma (Homo sapiens), sequence (Q13555 whole entry): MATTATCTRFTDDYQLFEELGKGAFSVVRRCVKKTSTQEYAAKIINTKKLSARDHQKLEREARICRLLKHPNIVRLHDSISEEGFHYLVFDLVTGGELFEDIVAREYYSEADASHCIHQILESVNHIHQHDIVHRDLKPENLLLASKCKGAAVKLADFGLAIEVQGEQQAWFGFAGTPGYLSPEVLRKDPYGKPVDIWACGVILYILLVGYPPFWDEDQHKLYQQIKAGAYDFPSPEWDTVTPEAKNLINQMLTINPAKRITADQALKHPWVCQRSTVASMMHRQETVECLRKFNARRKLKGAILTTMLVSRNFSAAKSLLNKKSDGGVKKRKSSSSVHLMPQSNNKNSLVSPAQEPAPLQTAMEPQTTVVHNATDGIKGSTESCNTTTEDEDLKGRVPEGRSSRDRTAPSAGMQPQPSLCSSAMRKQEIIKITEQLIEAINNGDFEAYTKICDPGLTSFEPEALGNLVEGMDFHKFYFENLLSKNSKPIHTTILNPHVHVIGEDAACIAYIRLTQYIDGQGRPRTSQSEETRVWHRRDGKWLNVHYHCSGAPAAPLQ
Peripheral plasma membrane protein CASK (Homo sapiens), sequence (O14936 whole entry): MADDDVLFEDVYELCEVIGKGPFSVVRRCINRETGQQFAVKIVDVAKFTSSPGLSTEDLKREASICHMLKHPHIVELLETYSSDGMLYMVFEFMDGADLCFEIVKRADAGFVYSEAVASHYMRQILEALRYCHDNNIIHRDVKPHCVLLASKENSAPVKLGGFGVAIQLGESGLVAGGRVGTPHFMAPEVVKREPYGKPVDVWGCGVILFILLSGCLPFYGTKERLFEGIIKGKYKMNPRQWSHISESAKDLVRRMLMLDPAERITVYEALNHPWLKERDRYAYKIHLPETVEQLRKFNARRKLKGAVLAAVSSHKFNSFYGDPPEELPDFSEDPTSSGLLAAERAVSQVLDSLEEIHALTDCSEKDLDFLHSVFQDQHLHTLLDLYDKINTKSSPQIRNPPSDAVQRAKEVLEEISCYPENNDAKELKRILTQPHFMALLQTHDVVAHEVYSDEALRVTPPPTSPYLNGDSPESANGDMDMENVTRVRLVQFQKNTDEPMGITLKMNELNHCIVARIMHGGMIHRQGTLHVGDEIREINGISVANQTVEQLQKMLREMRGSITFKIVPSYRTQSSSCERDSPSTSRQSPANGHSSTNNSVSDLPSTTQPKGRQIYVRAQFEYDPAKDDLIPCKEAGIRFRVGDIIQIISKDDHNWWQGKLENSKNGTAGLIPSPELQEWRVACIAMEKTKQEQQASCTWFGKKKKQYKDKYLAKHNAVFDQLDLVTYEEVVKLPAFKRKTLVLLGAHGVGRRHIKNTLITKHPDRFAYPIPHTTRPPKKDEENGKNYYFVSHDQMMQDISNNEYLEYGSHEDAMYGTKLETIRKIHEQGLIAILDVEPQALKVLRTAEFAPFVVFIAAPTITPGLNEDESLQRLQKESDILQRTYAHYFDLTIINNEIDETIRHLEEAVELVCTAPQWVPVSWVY
Ribosomal protein S6 kinase alpha-1 (Homo sapiens), sequence (Q15418 whole entry): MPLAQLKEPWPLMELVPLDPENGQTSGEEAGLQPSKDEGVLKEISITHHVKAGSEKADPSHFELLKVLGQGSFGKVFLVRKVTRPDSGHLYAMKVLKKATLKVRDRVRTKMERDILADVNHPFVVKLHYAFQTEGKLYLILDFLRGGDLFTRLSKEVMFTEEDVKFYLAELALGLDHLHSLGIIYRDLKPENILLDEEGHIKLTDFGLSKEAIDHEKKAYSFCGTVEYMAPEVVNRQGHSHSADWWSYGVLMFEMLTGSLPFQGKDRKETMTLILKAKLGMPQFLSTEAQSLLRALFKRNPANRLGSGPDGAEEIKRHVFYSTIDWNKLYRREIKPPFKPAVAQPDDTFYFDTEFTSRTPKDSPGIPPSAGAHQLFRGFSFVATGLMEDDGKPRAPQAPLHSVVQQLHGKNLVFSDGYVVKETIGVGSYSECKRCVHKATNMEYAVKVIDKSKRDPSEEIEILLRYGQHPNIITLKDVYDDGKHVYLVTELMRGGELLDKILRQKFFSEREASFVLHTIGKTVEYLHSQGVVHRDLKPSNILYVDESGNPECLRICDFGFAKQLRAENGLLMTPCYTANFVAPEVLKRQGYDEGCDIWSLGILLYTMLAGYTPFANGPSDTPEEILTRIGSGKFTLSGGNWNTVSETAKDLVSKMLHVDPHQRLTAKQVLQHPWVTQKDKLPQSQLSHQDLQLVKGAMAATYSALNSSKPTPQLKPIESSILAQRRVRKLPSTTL

For the compound `Cn1cncc1[C@](O)(COc1ccc(C#N)cc1-c1ccc(OC(F)(F)F)cc1)c1ccc(C#N)cc1` [ABT-100], the equilibrium dissociation constant (Kd) (on Aurora kinase B; in assay [1]) was > 10 µM (not active) throughout. The inhibition in assay [2] is below 10%; in assay [3] (Compound concentration 3.0 uM), 45%; in [3] (Compound concentration 10.0 uM), 74%; in assay [4], below 10%; in assay [5], below 10%; in [6], 36%. Besides, the inhibition in assay [7] is below 10%; in assay [8], 31%; in assay [9], below 10%; in [10] it was below 10%; in [11] (Compound concentration 3.0 uM) it was 32%; in [11] (Compound concentration 10.0 uM) it was 81%. The inhibition is below 10% in assay [12]; 14% in assay [13]; 24% in [14]; below 10% in assay [15]; 15% in assay [16]; below 10% in assay [17]. In addition, the inhibition in assay [18] was 30%; in [19] (Compound concentration 3.0 uM) it was 28%; in [19] (Compound concentration 10.0 uM), 67%; in assay [30], -4.28%; in assay [31], below 10%; in assay [32], 50%. Besides, the residual activity was 94% in [20]; 83% in assay [21]; 100% in assay [22]; 100% in assay [23]; 78% in assay [24]; 93% in assay [25]. Besides, the residual activity is 93% in assay [26], 79% in [27], 100% in assay [28] and 100% in assay [29].
On to `Cn1cncc1[C@@](O)(COc1ccc(C#N)cc1-c1ccc(OC(F)(F)F)cc1)c1ccc(C#N)cc1` [A-108], for which the Ki in assay [33] came out at 0.0916 µM. For the same compound, the residual activity was 98% in assay [20]; 92% in assay [21]; 97% in [22]; 81% in [23]; 100% in assay [24]; 97% in [25]. Moreover, the residual activity in assay [26], in assay [27], in assay [28] and in assay [29] was 100% in each case. Moreover, the inhibition in [30] is 3.34%.
